# Structures can show the parent of a compound that is named as a salt. Where two headings read alike, the source gives them in different places.
# System: HIV-1Ba-L
# Assay: HIV-1 Replication in PM1 Cell Culture Assay
# Assay type: cell-based
# Settings: read-out: IC50 μM HIV-1 PM1
# Description: C:HIV-1 Replication in PM1 Cell Culture Assay
# Evaluation of the in vitro anti-HIV-1Ba-L activity in PM1 cell line: PM1 cell line which is a continuous CD4+ T-cell clone originally derived from a neoplastic T-cell line is used. PM1 is characterized by a unique susceptibility to a wide range of HIV-1 isolates, including primary and biologically pure macrophage-tropic isolates. Drugs are serially diluted (9 concentrations in duplicates) and added to wells of a flat bottom 96-well plate. PM1 cells are infected with HIV-1Ba-L at a multiplicity of infection of 0.5 for a period of 3 hours. Unbound viruses are removed by washing the cells two times through centrifugation followed by seeding the cells into a 96-well plate in the presence of the serially diluted test compounds with final concentrations ranging from 0.00256 to 5000 ηM. Thereafter, plates were incubated for a period of 6 days at 37° C. in a CO2 incubator. Thereafter, culture supernatants are collected at day 6 and stored at −80° C. for viral quantification. The amount of virus present in cell culture supernatants is quantified using a reverse transcriptase assay. The concentration causing 50% inhibition of viral replication (IC50) is calculated using Graph Pad Prism software.
# [1] = Human immunodeficiency virus 1, PM1, 144 h
# [2] = Human immunodeficiency virus 1, 144 h, PM1 cell line infected with HIV-1Ba-L, 6 days, reverse transcriptase assay of supernatant
IC50 [2] [µM],SMILES,IC50 [1] [µM]
,"CCC(=O)N1C[C@H](CN2CCC3(CC2)NC(=O)N(Cc2ccc(S(C)(=O)=O)cc2)C3=O)[C@@H](c2ccccc2)C1 [Compound 15, 3-(4-Methanesulfonyl-benzyl)-8-((3S,4S)-4-phenyl-1-propionyl-pyrrolidin-3-ylmethyl)-1,3,8-triaza-spiro[4.5]decane-2,4-dione hydrochloride]",< 1
,"CC(C)(C)CC(=O)N1C[C@H](CN2CCC3(CC2)NC(=O)N(Cc2ccc(S(C)(=O)=O)cc2)C3=O)[C@@H](c2ccccc2)C1 [Compound 23, 8-[(3S,4S)-1-(3,3-Dimethyl-butyryl)-4-phenyl-pyrrolidin-3-ylmethyl]-3-(4-methanesulfonyl-benzyl)-1,3,8-triaza-spiro[4.5]decane-2,4-dione hydrochloride]",< 1
< 1,"COc1ccc(CN2C(=O)NC3(CCN(C[C@H]4CN(C(=O)OC(C)(C)C)C[C@@H]4c4ccccc4)CC3)C2=O)cc1 [Compound 2, (3S,4S)-3-[3-(4-Methoxy-benzyl)-2,4-dioxo-1,3,8-triaza-spiro[4.5]dec-8-ylmethyl]-4-phenyl-pyrrolidine-1-carboxylic acid tert-butyl ester]",
,"CCCN1C(=O)N(CC)C2(CCN(C[C@H]3CN(C(=O)CC(C)(C)C)C[C@@H]3c3ccccc3)CC2)C1=O [Compound 24, 8-[(3S,4S)-1-(3,3-Dimethyl-butyryl)-4-phenyl-pyrrolidin-3-ylmethyl]-1-ethyl-3-propyl-1,3,8-triaza-spiro[4.5]decane-2,4-dione hydrochloride]",< 1
< 1,"CC(C)(C)OC(=O)N1C[C@H](CN2CCC3(CC2)NC(=O)N(Cc2ccc(S(C)(=O)=O)cc2)C3=O)[C@@H](c2ccccc2)C1 [Compound 3, (3S,4S)-3-[3-(4-Methanesulfonyl-benzyl)-2,4-dioxo-1,3,8-triaza-spiro[4.5]dec-8-ylmethyl]-4-phenyl-pyrrolidine-1-carboxylic acid tert-butyl ester]",
,"CC1(C(=O)N2C[C@H](CN3CCC4(CC3)NC(=O)N(Cc3ccc(S(C)(=O)=O)cc3)C4=O)[C@@H](c3ccccc3)C2)CC1 [Compound 16, 3-(4-Methanesulfonyl-benzyl)-8-[(3S,4S)-1-(1-methyl-cyclopropanecarbonyl)-4-phenyl-pyrrolidin-3-ylmethyl]-1,3,8-triaza-spiro[4.5]decane-2,4-dione hydrochloride]",< 1
,"CN(C)S(=O)(=O)c1ccc(CN2C(=O)NC3(CCN(C[C@H]4CN(C(=O)C5CCC(F)(F)CC5)C[C@@H]4c4ccccc4)CC3)C2=O)cc1 [Compound 22, 4-{8-[(3S,4S)-1-(4,4-Difluoro-cyclohexanecarbonyl)-4-phenyl-pyrrolidin-3-ylmethyl]-2,4-dioxo-1,3,8-triaza-spiro[4.5]dec-3-ylmethyl}-N,N-dimethyl-benzenesulfonamide hydrochloride]",< 1
,"CS(=O)(=O)c1ccc(CN2C(=O)NC3(CCN(C[C@H]4CN(C(=O)c5ccccc5F)C[C@@H]4c4ccccc4)CC3)C2=O)cc1 [Compound 20, 8-[(3S,4S)-1-(2-Fluoro-benzoyl)-4-phenyl-pyrrolidin-3-ylmethyl]-3-(4-methanesulfonyl-benzyl)-1,3,8-triaza-spiro[4.5]decane-2,4-dione hydrochloride]",< 1
,"CS(=O)(=O)c1ccc(CN2C(=O)NC3(CCN(C[C@H]4CN(C(=O)c5ccccc5Cl)C[C@@H]4c4ccccc4)CC3)C2=O)cc1 [Compound 21, 8-[(3S,4S)-1-(2-Chloro-benzoyl)-4-phenyl-pyrrolidin-3-ylmethyl]-3-(4-methanesulfonyl-benzyl)-1,3,8-triaza-spiro[4.5]decane-2,4-dione hydrochloride]",< 1
,"CS(=O)(=O)c1ccc(CN2C(=O)NC3(CCN(C[C@H]4CN(C(=O)CC5CC5)C[C@@H]4c4ccccc4)CC3)C2=O)cc1 [Compound 17, 8-[(3S,4S)-1-(2-Cyclopropyl-acetyl)-4-phenyl-pyrrolidin-3-ylmethyl]-3-(4-methanesulfonyl-benzyl)-1,3,8-triaza-spiro[4.5]decane-2,4-dione hydrochloride]",< 1
,"CS(=O)(=O)c1ccc(CN2C(=O)NC3(CCN(C[C@H]4CN(C(=O)C5CCCC5)C[C@@H]4c4ccccc4)CC3)C2=O)cc1 [Compound 18, 8-((3S,4S)-1-Cyclopentanecarbonyl-4-phenyl-pyrrolidin-3-ylmethyl)-3-(4-methanesulfonyl-benzyl)-1,3,8-triaza-spiro[4.5]decane-2,4-dione hydrochloride]",< 1
,"CS(=O)(=O)c1ccc(CN2C(=O)NC3(CCN(C[C@H]4CN(C(=O)C5CCC(F)(F)CC5)C[C@@H]4c4ccccc4)CC3)C2=O)cc1 [Compound 19, 8-[(3S,4S)-1-(4,4-Difluoro-cyclohexanecarbonyl)-4-phenyl-pyrrolidin-3-ylmethyl]-3-(4-methanesulfonyl-benzyl)-1,3,8-triaza-spiro[4.5]decane-2,4-dione hydrochloride]",< 1
< 1,"CC(C)(C)OC(=O)N1C[C@H](CN2CCC3(CC2)NC(=O)N(Cc2ccc(Br)cc2)C3=O)[C@@H](c2ccccc2)C1 [Compound 1, (3S,4S)-3-[3-(4-Bromo-benzyl)-2,4-dioxo-1,3,8-triaza-spiro[4.5]dec-8-ylmethyl]-4-phenyl-pyrrolidine-1-carboxylic acid tert-butyl ester]",

# Source: US20100286183A1, “SPIROHYDANTOIN COMPOUNDS AND METHODS FOR THE MODULATION OF CHEMOKINE RECEPTOR ACTIVITY” (priority 2005, published 2010)
